# System: IL17A
# Assay: skin Resident Immune Cell Assay (sRICA), Th17 model, IL17A protein in media
# Format: cell-based
# Details: 100 uM solution in 1% DMSO/OD applied topically to human skin; media collected 24 hours after Th17 activation
# Description: A skin Resident Immune Cell Assay (sRICA) was used to test compounds for reduction of IL-17A protein upregulation in the Th17 sRICA model. In this model, human surgical skin waste was cultured in a transwell system, with the dermis in contact with cell culture media and the stratum corneum exposed to air. To perform the assay, each human skin sample was defatted and dermatomed to 750μm. Next, 8 mm punch biopsies were obtained and placed in a membrane transwell. The transwells were inserted into culture wells with complete media, and a cocktail of cytokines and antibodies were added to promote skin resident immune cell polarization.
# RORγt inhibitors were prepared as a 100 uM solution in 1% DMSO/OD. […] of the prepared topical solution was applied to sRICA wells prepared for topical drug evaluation. Drugs were allowed to penetrate the skin overnight, for up to 24 hours prior to Th17 activation. Media was collected 24 hours after Th17 activation for IL17A protein assessment. IL17A protein was evaluated using the Quanterix IL17A detection kit on the SiMoA platform (via CRO Translational Biosciences). There was significant upregulation of IL17A with Th17 activation. Each study was normalized to the % max of IL17A production (i.e. the average IL17A concentration of Th17 activated skin alone) was set to 100%, all other values (untreated no activation and treated samples) were obtained as a percentage of this. […]
row,SMILES,inhibition at 100 µM [%]
1,"COCc1ccc([C@@H](NC(=O)[C@H]2CNC(=O)C2)C(=O)Nc2cc(F)c(C(C)(C)C)c(F)c2)cc1 [(3R)-N-((1R)-2-((4-tert-butyl-3,5-difluorophenyl)amino)-1-(4-(methoxymethyl)phenyl)-2-oxoethyl)-5-oxopyrrolidine-3-carboxamide]",63.1
2,COCc1ccc([C@@H](NC(=O)[C@H]2CNC(=O)C2)C(=O)Nc2ccc(C(C)(C)C)c(F)c2)cc1 [(3R)-N-((1R)-2-((4-tert-butyl-3-fluorophenyl)amino)-1-(4-(methoxymethyl)phenyl)-2-oxoethyl)-5-oxopyrrolidine-3-carboxamide],74.1
3,"CC(C)(C)c1ccc(NC(=O)[C@H](NC(=O)[C@@H]2CNC(=O)C2)c2ccc3c(c2)CCO3)cc1F [(3S)-N-(2-((4-tert-butyl-3-fluorophenyl)amino)-1-(2,3-dihydro-1-benzofuran-5-yl)-2-oxoethyl)-5-oxopyrrolidine-3-carboxamide]",48.7
4,"COCc1ccc([C@@H](NC(=O)[C@@H]2CNC(=O)C2)C(=O)Nc2ccc(CC(C)(C)C)c(F)c2)cc1 [(3S)-N-((1R)-2-((4-(2,2-dimethylpropyl)-3-fluorophenyl)amino)-1-(4-(methoxymethyl)phenyl)-2-oxoethyl)-5-oxopyrrolidine-3-carboxamide]",52.9
5,COCc1ccc([C@@H](NC(=O)[C@@H]2CNC(=O)C2)C(=O)Nc2ccc(C(C)(C)C)c(F)c2)cc1 [(3S)-N-((1R)-2-((4-tert-butyl-3-fluorophenyl)amino)-1-(4-(methoxymethyl)phenyl)-2-oxoethyl)-5-oxopyrrolidine-3-carboxamide],38.7
6,"COc1ccc2c(n1)CCN(C(=O)Cc1cc(O)no1)[C@H]2C(=O)Nc1ccc(C(C)(C)C)c(F)c1 [(5R)-N-(4-tert-butyl-3-fluorophenyl)-6-((3-hydroxy-1,2-oxazol-5-yl)acetyl)-2-methoxy-5,6,7,8-tetrahydro-1,6-naphthyridine-5-carboxamide]",69.5
7,"COc1ccc2c(n1)CCN(C(=O)Cc1cc(O)no1)[C@H]2C(=O)Nc1cc(F)c2c(c1)CCC2(C)C [(5R)-N-(7-fluoro-1,1-dimethyl-2,3-dihydro-1H-inden-5-yl)-6-((3-hydroxy-1,2-oxazol-5-yl)acetyl)-2-methoxy-5,6,7,8-tetrahydro-1,6-naphthyridine-5-carboxamide]",19.2
8,"COc1ccc2c(n1)CCN(C(=O)c1cc(O)no1)[C@H]2C(=O)Nc1cc(F)c2c(c1)CCC2(C)C [(5R)-N-(7-fluoro-1,1-dimethyl-2,3-dihydro-1H-inden-5-yl)-6-((3-hydroxy-1,2-oxazol-5-yl)carbonyl)-2-methoxy-5,6,7,8-tetrahydro-1,6-naphthyridine-5-carboxamide]",46.9
9,"CC(C)(C)c1ccc(NC(=O)[C@H](NC(=O)C(O)C(F)(F)F)C2CCOCC2)cc1Cl (stereo partly drawn) [N-((1R)-2-((4-tert-butyl-3-chlorophenyl)amino)-2-oxo-1-(tetrahydro-2H-pyran-4-yl)ethyl)-3,3,3-trifluoro-2-hydroxypropanamide]",71.3

# Same assay, conditions: Homo sapiens, 24 h, 100 uM solution in 1% DMSO/OD applied topically to human skin; media collected 24 hours after Th17 activation
row,SMILES,inhibition at 100 µM [%]
1,COc1ccc([C@@H](NC(=O)N2CC[C@@H](O)C2)C(=O)Nc2ccc([Si](C)(C)C)c(F)c2)cc1 [(3R)-N-((1R)-2-((3-fluoro-4-(trimethylsilyl)phenyl)amino)-1-(4-methoxyphenyl)-2-oxoethyl)-3-hydroxypyrrolidine-1-carboxamide],46.9
2,Cn1ncc2cc(C(NC(=O)[C@@H]3CNC(=O)C3)C(=O)Nc3ccc([Si](C)(C)C)c(F)c3)ccc21 (stereo partly drawn) [(3S)-N-(2-((3-fluoro-4-(trimethylsilyl)phenyl)amino)-1-(1-methyl-1H-indazol-5-yl)-2-oxoethyl)-5-oxopyrrolidine-3-carboxamide],58.3
3,"COCc1ccc([C@@H](NC(=O)[C@@H]2CNC(=O)C2)C(=O)Nc2cc(F)c([Si](C)(C)C)c(F)c2)cc1 [(3S)-N-((1R)-2-((3,5-difluoro-4-(trimethylsilyl)phenyl)amino)-1-(4-(methoxymethyl)phenyl)-2-oxoethyl)-5-oxopyrrolidine-3-carboxamide]",23.6
4,"COc1ccc2c(c1)OCCN(C(=O)Cc1cc(O)no1)[C@H]2C(=O)Nc1cc(F)c([Si](C)(C)C)c(F)c1 [(5R)-N-(3,5-difluoro-4-(trimethylsilyl)phenyl)-4-((3-hydroxy-1,2-oxazol-5-yl)acetyl)-8-methoxy-2,3,4,5-tetrahydro-1,4-benzoxazepine-5-carboxamide]",58.1
5,"COCc1ccc2c(n1)CCN(C(=O)Cc1cc(O)no1)[C@H]2C(=O)Nc1cc(F)c([Si](C)(C)C)c(F)c1 [(5R)-N-(3,5-difluoro-4-(trimethylsilyl)phenyl)-6-((3-hydroxy-1,2-oxazol-5-yl)acetyl)-2-(methoxymethyl)-5,6,7,8-tetrahydro-1,6-naphthyridine-5-carboxamide]",60.1
6,"COc1ccc2c(n1)CCN(C(=O)Cc1cc(O)no1)[C@H]2C(=O)Nc1cc(F)c([Si](C)(C)C)c(F)c1 [(5R)-N-(3,5-difluoro-4-(trimethylsilyl)phenyl)-6-((3-hydroxy-1,2-oxazol-5-yl)acetyl)-2-methoxy-5,6,7,8-tetrahydro-1,6-naphthyridine-5-carboxamide]",49.4
7,"COCc1ccc2c(n1)CCN(C(=O)c1cc(O)no1)[C@H]2C(=O)Nc1cc(F)c([Si](C)(C)C)c(F)c1 [(5R)-N-(3,5-difluoro-4-(trimethylsilyl)phenyl)-6-((3-hydroxy-1,2-oxazol-5-yl)carbonyl)-2-(methoxymethyl)-5,6,7,8-tetrahydro-1,6-naphthyridine-5-carboxamide]",-15.5
8,"COc1ccc2c(n1)CCN(C(=O)Cc1cc(O)no1)[C@H]2C(=O)Nc1ccc([Si](C)(C)C)c(F)c1 [(5R)-N-(3-fluoro-4-(trimethylsilyl)phenyl)-6-((3-hydroxy-1,2-oxazol-5-yl)acetyl)-2-methoxy-5,6,7,8-tetrahydro-1,6-naphthyridine-5-carboxamide]",22.2
9,"CC[Si](C)(C)c1c(F)cc(NC(=O)[C@H]2c3ccc(COC)nc3CCN2C(=O)c2cc(O)no2)cc1F [(5R)-N-(4-(ethyl(dimethyl)silyl)-3,5-difluorophenyl)-6-((3-hydroxy-1,2-oxazol-5-yl)carbonyl)-2-(methoxymethyl)-5,6,7,8-tetrahydro-1,6-naphthyridine-5-carboxamide]",48.5
10,"CN(C(=O)c1cc(O)no1)C(C(=O)Nc1cc(F)c([Si](C)(C)C)c(F)c1)C1CCOCC1 (stereo not drawn) [N-(2-((3,5-difluoro-4-(trimethylsilyl)phenyl)amino)-2-oxo-1-(tetrahydro-2H-pyran-4-yl)ethyl)-3-hydroxy-N-methyl-1,2-oxazole-5-carboxamide]",31.7
11,COCc1ccc(C(NC(=O)C2CNC(=O)C2)C(=O)Nc2ccc([Si](C)(C)C)c(F)c2)cc1 (stereo not drawn) [N-(2-((3-fluoro-4-(trimethylsilyl)phenyl)amino)-1-(4-(methoxymethyl)phenyl)-2-oxoethyl)-5-oxopyrrolidine-3-carboxamide],85.2
12,COc1ccc(C(NC(=O)C2CNC(=O)C2)C(=O)Nc2ccc([Si](C)(C)C)c(F)c2)cc1 (stereo not drawn) [N-(2-((3-fluoro-4-(trimethylsilyl)phenyl)amino)-1-(4-methoxyphenyl)-2-oxoethyl)-5-oxopyrrolidine-3-carboxamide],65.8
13,"CCn1c(=O)n(CCCOC)c(=O)c2cc(NC(=O)CC(C)CC(=O)Nc3ccc(C#N)c(Cl)c3)ccc21 (stereo not drawn) [N-(3-chloro-4-cyanophenyl)-N′-(1-ethyl-3-(3-methoxypropyl)-2,4-dioxo-1,2,3,4-tetrahydroquinazolin-6-yl)-3-methylpentanediamide]",60.8
14,"COc1ccc([C@H](C(=O)Nc2cc(F)c([Si](C)(C)C)cc2F)N(C)C(=O)c2cc(O)no2)cc1 [N-((1R)-2-((2,5-difluoro-4-(trimethylsilyl)phenyl)amino)-1-(4-methoxyphenyl)-2-oxoethyl)-3-hydroxy-N-methyl-1,2-oxazole-5-carboxamide]",18.2
15,COCc1ccc([C@@H](NC(=O)CCS(C)(=O)=O)C(=O)Nc2ccc([Si](C)(C)C)c(F)c2)cc1 [N-((1R)-2-((3-fluoro-4-(trimethylsilyl)phenyl)amino)-1-(4-(methoxymethyl)phenyl)-2-oxoethyl)-3-(methylsulfonyl)propanamide],67.4
16,COCc1ccc([C@@H](NC(=O)N2CC(O)C2)C(=O)Nc2ccc([Si](C)(C)C)c(F)c2)cc1 [N-((1R)-2-((3-fluoro-4-(trimethylsilyl)phenyl)amino)-1-(4-(methoxymethyl)phenyl)-2-oxoethyl)-3-hydroxyazetidine-1-carboxamide],54.6
17,COCc1ccc([C@@H](NC(=O)C2CCOCC2)C(=O)Nc2ccc([Si](C)(C)C)c(F)c2)cc1 [N-((1R)-2-((3-fluoro-4-(trimethylsilyl)phenyl)amino)-1-(4-(methoxymethyl)phenyl)-2-oxoethyl)tetrahydro-2H-pyran-4-carboxamide],-20.1
18,CCn1c2ccccc2c2cc(C(=O)NCC(C)CC(=O)Nc3ccc(C#N)c(Cl)c3)ccc21 (stereo not drawn) [N-{4-[(3-chloro-4-cyanophenyl)amino]-2-methyl-4-oxobutyl}-9-ethyl-9H-carbazole-3-carboxamide],24.5
